Measurements from patent publication US3981903A, “Cyclopropane carboxylic acid esters” (Sumitomo Chemical Company, Limited, priority 1973, dated 1976).
Converted amounts (≈) assume the structure as drawn.

Columns and labels:
Assay type in all cases: in vivo
[1] = system: diamondback moths; experiment: Test Example 2: pesticidal effects on diamondback moth larvae, sprayed Chinese cabbage; settings: for LC50: Plutella xylostella, 48 h, fourth instar larvae, after 2 days, from 20 % emulsifiable concentrates, read-out: LC50 (50 % lethal concentration); for Ratio of effect: relative to DDVP, defined as 1.0
Description: The present compounds (1), (2), (3) and (4) were individually formulated according to ordinary procedure into 20 % emulsifiable concentrates. As a control, DDVP was also formulated into a 20 % emulsifiable concentrate.
Each of the above-mentioned emulsifiable concentrates was diluted with water to a test concentration, and 10 ml. of the resulting dilution was sprayed to the potted Chinese cabbages at the stage of 3 to 4 leaves. Subsequently, the cabbage leaves were put in a glass Petri dish of 14 cm. in diameter and 7 cm. in height, and 10 diamondback moth larvae at the fourth instar stage were liberated into the dish. After 2 days, the number of dead and alive larvae was counted to calculate the value of LC50 (50 % lethal concentration).

[2] = system: housefly adults; experiment: Test Example 3: pesticidal effects on housefly adults, Campbell's turn table, 0.2 % oil preparations; settings: 0.2 % oil preparation, 5 ml, present compounds as dl-trans isomers; for mortality at 0.2 %: Musca domestica, 24 h, after a day
Description: dl-Trans isomers of the present compounds (1), (2), (3) and (4) were individually formulated by use of deodorized kerosene into 0.2 % oil preparations. As a control, pyrethrin was also formulated into a 0.2 % oil preparation.
Using the Campbell's turn table [Soap and Sanitary Chemicals; Vol. 14, No. 119 (1938)], 5 ml. of each of the above-mentioned oil preparations was sprayed. When 20 seconds had elapsed after the spraying, the shutter was opened, and a group of about 100 housefly adults were exposed to the settling mist for 10 minutes. Subsequently, the number of knocked down houseflies was counted to calculate the knock-down ratio. The houseflies were then transferred to another cage, fed and allowed to stand for a day at room temperature. Thereafter, the number of dead and alive houseflies was counted to calculate the mortality.

[3] = system: green rice leafhoppers; experiment: Test Example 1: pesticidal effect on green rice leafhoppers, sprayed rice seedlings; settings: for Mortality: 20 % emulsifiable concentrate diluted to 200 times, next day, 1440 min; for KT50 (50 % knock-down time): 20 % emulsifiable concentrate diluted with water to 200 times
Description: The present compounds (1), (2), (3), (4), (5) and (6) were individually formulated according to ordinary procedure into 20 % emulsifiable concentrates. As a standard compound, 3,4-dimethylphenyl-N-methyl carbamate [hereinafter referred to as "Meobal" (registered trademark of Sumitomo Chemical Co., Ltd.)] was also formulated into a 20 % emulsifiable concentrate.
In flower pots of 9 cm. in diameter, about 20 rice seedlings per pot were grown to the stage of 3 to 4 leaves. Each of the above-mentioned emulsifiable concentrates was diluted with water to 200 times, and sprayed to the seedlings by use of a turn table. After air-drying, the seedlings were put in a 5 liter glass beaker, which was then covered at the top with gauze. Thereafter, 20 green rice leafhoppers were liberated into the beaker, and the number of knocked down insects was counted with lapse of time to calculate the value of KT50 (50 % knock-down time). On the next day, the number of dead and alive insects was counted to calculate the mortality.

CC1(C)C(C=C(Cl)Cl)C1C(=O)OC/C=C(\Cl)Cc1ccccc1 (stereo not drawn) [(1), 3-Chloro-4-phenyl-trans-2-butene-1-yl 2',2'-dimethyl-3'-(2",2"-dichlorovinyl)-cyclopropanecarboxylate]
LC50 [1]: 43 µg/mL (≈ 115 µM) | Ratio of effect [1]: 8.6 | Ratio of knocked down houseflies after 10 minutes [2]: 100% | mortality at 0.2 % [2]: 100% | Mortality [3]: 100% | KT50 (50 % knock-down time) [3]: 19 min

CC1(C)C(C=C(Cl)Cl)C1C(=O)OC/C=C(\Br)Cc1ccccc1 (stereo not drawn) [(2), 3-Bromo-4-phenyl-trans-2-butene-1-yl 2',2'-dimethyl-3'-(2",2"-dichlorovinyl)-cyclopropanecarboxylate]
LC50 [1]: 56 µg/mL (≈ 134 µM) | Ratio of effect [1]: 6.6 | Ratio of knocked down houseflies after 10 minutes [2]: 100% | mortality at 0.2 % [2]: 99% | Mortality [3]: 100% | KT50 (50 % knock-down time) [3]: 13 min

CC1(C)C(C=C(Cl)Cl)C1C(=O)OC/C=C/Cc1ccccc1 (stereo not drawn) [(3), 4-Phenyl-trans-2-butene-1-yl 2',2'-dimethyl-3'-(2",2"-dichlorovinyl)-cyclopropanecarboxylate]
LC50 [1]: 48 µg/mL (≈ 141 µM) | Ratio of effect [1]: 7.7 | Ratio of knocked down houseflies after 10 minutes [2]: 100% | mortality at 0.2 % [2]: 100% | Mortality [3]: 100% | KT50 (50 % knock-down time) [3]: 11 min

CC(=CCOC(=O)C1C(C=C(Cl)Cl)C1(C)C)Cc1ccccc1 (stereo not drawn) [(4), 3-Methyl-4-phenyl-2-butene-1-yl 2',2'-dimethyl-3'-(2",2"-dichlorovinyl)-cyclopropanecarboxylate]
LC50 [1]: 75 µg/mL (≈ 212 µM) | Ratio of effect [1]: 4.9 | Ratio of knocked down houseflies after 10 minutes [2]: 100% | mortality at 0.2 % [2]: 98% | Mortality [3]: 100% | KT50 (50 % knock-down time) [3]: 15 min

CC1(C)C(C=C(Cl)Cl)C1C(=O)OCC=C(Cl)Cc1ccccc1 (stereo not drawn) [(5), 3-Chloro-4-phenyl-trans-2-butene-1-yl d-trans-2',2'-dimethyl-3' -(2",2"-dichlorovinyl)-cyclopropanecarboxylate]
Mortality [3]: 100% | KT50 (50 % knock-down time) [3]: 9 min

CC1(C)C(C=C(Cl)Cl)C1C(=O)OC/C(Cl)=C(\Cl)Cc1ccccc1 (stereo not drawn) [(6), 2,3-Dichloro-4-phenyl-trans-2-butene-1-yl 2',2'-dimethyl-3'-(2",2"-dichlorovinyl)-cyclopropanecarboxylate]
Mortality [3]: 100% | KT50 (50 % knock-down time) [3]: 21 min

COP(=O)(OC)OC=C(Cl)Cl [DDVP, 0,0-Dimethyl 0-2,2-dichlorovinyl phosphate, reference compound]
LC50 [1]: 370 µg/mL

CNC(=O)Oc1ccc(C)c(C)c1 [Meobal, 3,4-dimethylphenyl-N-methyl carbamate, reference compound]
KT50 (50 % knock-down time) [3]: 24 min
